Experimental data: PubChem BioAssay AID623945 (Vanderbilt Specialized Chemistry Center, 2012)

Target: Muscarinic acetylcholine receptor M4 (Rattus norvegicus) (UniProt P08485)
Assay: potentiation of rat M4 acetylcholine response – CHO cells, Gqi5 chimera, calcium, ACh EC20, selectivity assay for human M4 PAM optimization, SAR follow-up (AID 623945)
Details: CHO rM4/Gqi5 calcium fluorescence

Sequence of Muscarinic acetylcholine receptor M4 (Rattus norvegicus) (P08485 whole entry, looked up): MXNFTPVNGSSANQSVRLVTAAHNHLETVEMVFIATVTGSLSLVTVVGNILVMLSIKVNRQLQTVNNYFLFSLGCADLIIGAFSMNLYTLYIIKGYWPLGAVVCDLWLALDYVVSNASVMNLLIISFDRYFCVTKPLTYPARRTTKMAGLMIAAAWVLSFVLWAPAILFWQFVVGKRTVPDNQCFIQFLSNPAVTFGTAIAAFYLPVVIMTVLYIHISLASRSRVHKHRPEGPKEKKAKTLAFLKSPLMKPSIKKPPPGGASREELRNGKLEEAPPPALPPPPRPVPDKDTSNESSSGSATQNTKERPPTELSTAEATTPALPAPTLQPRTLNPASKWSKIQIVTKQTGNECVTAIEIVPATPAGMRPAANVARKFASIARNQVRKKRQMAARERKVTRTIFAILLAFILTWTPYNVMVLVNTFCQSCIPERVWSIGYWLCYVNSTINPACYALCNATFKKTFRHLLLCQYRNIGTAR

Row | Compound | EC50 [nM]
1 | Cc1nc2sc(C(=O)NCc3ccncn3)c(N)c2c(C)c1Cl | 527
2 | Cc1nc2sc(C(=O)NCc3nccs3)c(N)c2c(C)c1Cl | 187
3 | Cc1nc2sc(C(=O)NC3CC3)c(N)c2c(C)c1Cl | 151
4 | Cc1nc2sc(C(=O)NCc3ccncc3)c(N)c2c(C)c1Cl | 173
5 | Cc1nc2sc(C(=O)NCCc3ccncc3)c(N)c2c(C)c1Cl | 229

Now from value to molecule:

Row | EC50 [nM] | Compound
6 | 3210 | COc1ccc(C)c2sc(NC(=O)c3ccncc3)nc12
7 | 126 | Cc1nc2sc(C(=O)NCc3ccccc3)c(N)c2c(C)c1Cl
8 | 62 | Cc1nc2sc(C(=O)NCc3ccc4c(c3)OCO4)c(N)c2c(C)c1Cl
9 | 272 | Cc1nc2sc(C(=O)NCc3cccnc3)c(N)c2c(C)c1Cl
10 | 114 | Cc1nc2sc(C(=O)NCc3cccc(F)c3F)c(N)c2c(C)c1Cl
